Data reported in ChEMBL document CHEMBL1156987, “Novel azalides derived from 16-membered macrolides. III. Azalides modified at the C-15 and 4'' positions: Improved antibacterial activities” (Bioorg Med Chem, 2010).
Values after ≈ are worked out from the molar mass of the structure shown.

What was measured:
Type in all cases: functional
Staphylococcus aureus = assay: Antibacterial activity against Staphylococcus aureus 209P JC1 after 20 hrs by agar dilution method; details: 209P JC1, 20 h
Streptococcus pneumoniae [1] = assay: Antibacterial activity against Streptococcus pneumoniae DP1 type 1 after 20 hrs by agar dilution method; details: DP1 type1, 20 h
Streptococcus pneumoniae [2] = assay: Antibacterial activity against Streptococcus pneumoniae 5 expressing constitutive ermB methylase after 20 hrs by agar dilution method; details: Streptococcus pneumoniae, 5, 20 h
Streptococcus pneumoniae [3] = assay: Antibacterial activity against Streptococcus pneumoniae 6 expressing constitutive ermB methylase and mefA after 20 hrs by agar dilution method; details: Streptococcus pneumoniae, 6, 20 h
Streptococcus pneumoniae [4] = assay: Antibacterial activity against Streptococcus pneumoniae 7 expressing constitutive ermB methylase after 20 hrs by agar dilution method; details: Streptococcus pneumoniae, 7, 20 h
Streptococcus pneumoniae [5] = assay: Antibacterial activity against Streptococcus pneumoniae 8 expressing inducible ermB methylase after 20 hrs by agar dilution method; details: Streptococcus pneumoniae, 8, 20 h
Streptococcus pneumoniae [6] = assay: Antibacterial activity against Streptococcus pneumoniae 9 expressing inducible ermB methylase after 20 hrs by agar dilution method; details: Streptococcus pneumoniae, 9, 20 h
Streptococcus pneumoniae [7] = assay: Antibacterial activity against Streptococcus pneumoniae 10 expressing mefA efflux pump after 20 hrs by agar dilution method; details: Streptococcus pneumoniae, 10, 20 h
Streptococcus pneumoniae [8] = assay: Antibacterial activity against Streptococcus pneumoniae 11 expressing mefA efflux pump after 20 hrs by agar dilution method; details: Streptococcus pneumoniae, 11, 20 h
Streptococcus pyogenes [9] = assay: Antibacterial activity against Streptococcus pyogenes Cook after 20 hrs by agar dilution method
Streptococcus pyogenes [10] = assay: Antibacterial activity against Streptococcus pyogenes 2 expressing constitutive ermB methylase after 20 hrs by agar dilution method; details: Streptococcus pyogenes, 2, 20 h
Streptococcus pyogenes [11] = assay: Antibacterial activity against Streptococcus pyogenes 3 expressing mefA efflux pump after 20 hrs by agar dilution method; details: Streptococcus pyogenes, 3, 20 h
Haemophilus influenzae [12] = assay: Antibacterial activity against Haemophilus influenzae 1 after 20 hrs by agar dilution method; details: Haemophilus influenzae, 1, 20 h
Haemophilus influenzae [13] = assay: Antibacterial activity against Haemophilus influenzae 2 after 20 hrs by agar dilution method; details: Haemophilus influenzae, 2, 20 h
Haemophilus influenzae [14] = assay: Antibacterial activity against Haemophilus influenzae 3 after 20 hrs by agar dilution method; details: Haemophilus influenzae, 3, 20 h

MIC (Staphylococcus aureus) [mg/L]	MIC (Streptococcus pneumoniae [1]) [mg/L]	MIC (Streptococcus pneumoniae [2]) [mg/L]	MIC (Streptococcus pneumoniae [3]) [mg/L]	MIC (Streptococcus pneumoniae [4]) [mg/L]	MIC (Streptococcus pneumoniae [5]) [mg/L]	MIC (Streptococcus pneumoniae [6]) [mg/L]	MIC (Streptococcus pneumoniae [7]) [mg/L]	MIC (Streptococcus pneumoniae [8]) [mg/L]	MIC (Streptococcus pyogenes [9]) [mg/L]	MIC (Streptococcus pyogenes [10]) [mg/L]	MIC (Streptococcus pyogenes [11]) [mg/L]	MIC (Haemophilus influenzae [12]) [mg/L]	MIC (Haemophilus influenzae [13]) [mg/L]	MIC (Haemophilus influenzae [14]) [mg/L]	SMILES
0.25 (≈ 0.25 µM)	< 0.008	4 (≈ 4 µM)	4 (≈ 4 µM)	4 (≈ 4 µM)	0.06 (≈ 0.0599 µM)	0.06 (≈ 0.0599 µM)	0.015 (≈ 0.015 µM)	0.015 (≈ 0.015 µM)	0.06 (≈ 0.0599 µM)	8 (≈ 7.99 µM)	0.06 (≈ 0.0599 µM)	2 (≈ 2 µM)	4 (≈ 4 µM)	4 (≈ 4 µM)	CCNC(=O)O[C@H]1[C@H](C)O[C@@H](O[C@H]2[C@H](N(C)C)[C@@H](O)[C@H](O[C@H]3[C@@H](CC=O)C[C@@H](C)[C@@H](O)CN(C)CCC[C@H](C/C=C/c4cnc5ccccc5c4)OC(=O)C[C@@H](O)[C@@H]3OC)O[C@@H]2C)C[C@@]1(C)OC(=O)CC
0.25 (≈ 0.236 µM)	0.03 (≈ 0.0284 µM)	32 (≈ 30.3 µM)	> 32	> 32	0.25 (≈ 0.236 µM)	0.5 (≈ 0.473 µM)	0.06 (≈ 0.0567 µM)	0.06 (≈ 0.0567 µM)	0.06 (≈ 0.0567 µM)	> 32	0.06 (≈ 0.0567 µM)	8 (≈ 7.57 µM)	32 (≈ 30.3 µM)	32 (≈ 30.3 µM)	CCC(=O)O[C@@H]1CC(=O)O[C@@H](C/C=C/c2cnc3ccccc3c2)CCCN(C)C[C@H](O)[C@H](C)C[C@H](CC=O)[C@H](O[C@@H]2O[C@H](C)[C@@H](O[C@H]3C[C@@](C)(OC(=O)CC)[C@@H](OC(=O)N(C)C)[C@H](C)O3)[C@H](N(C)C)[C@H]2O)[C@H]1OC
0.5 (≈ 0.473 µM)	0.015 (≈ 0.0142 µM)	64 (≈ 60.5 µM)	64 (≈ 60.5 µM)	64 (≈ 60.5 µM)	0.5 (≈ 0.473 µM)	0.5 (≈ 0.473 µM)	0.03 (≈ 0.0284 µM)	0.03 (≈ 0.0284 µM)	0.06 (≈ 0.0567 µM)	> 128	0.25 (≈ 0.236 µM)	8 (≈ 7.57 µM)	32 (≈ 30.3 µM)	16 (≈ 15.1 µM)	CCNC(=O)O[C@H]1[C@H](C)O[C@@H](O[C@H]2[C@H](N(C)C)[C@@H](O)[C@H](O[C@H]3[C@@H](CC=O)C[C@@H](C)[C@@H](O)CN(C)CCC[C@H](C/C=C/c4ccnc5ccccc45)OC(=O)C[C@@H](OC(=O)CC)[C@@H]3OC)O[C@@H]2C)C[C@@]1(C)OC(=O)CC
0.5 (≈ 0.492 µM)	0.015 (≈ 0.0148 µM)	1 (≈ 0.984 µM)	1 (≈ 0.984 µM)	1 (≈ 0.984 µM)	0.06 (≈ 0.059 µM)	0.03 (≈ 0.0295 µM)	0.015 (≈ 0.0148 µM)	0.015 (≈ 0.0148 µM)	0.03 (≈ 0.0295 µM)	2 (≈ 1.97 µM)	0.03 (≈ 0.0295 µM)	2 (≈ 1.97 µM)	4 (≈ 3.94 µM)	8 (≈ 7.87 µM)	CCNC(=O)O[C@H]1[C@H](C)O[C@@H](O[C@H]2[C@H](N(C)C)[C@@H](O)[C@H](O[C@H]3[C@@H](CC=O)C[C@@H](C)[C@@H](O)CN(C)CCC[C@H](C/C=C/c4cnc(N)c5ccccc45)OC(=O)C[C@@H](O)[C@@H]3OC)O[C@@H]2C)C[C@@]1(C)OC(=O)CC
1 (≈ 0.978 µM)	0.03 (≈ 0.0293 µM)	8 (≈ 7.83 µM)	8 (≈ 7.83 µM)	8 (≈ 7.83 µM)	0.25 (≈ 0.245 µM)	0.5 (≈ 0.489 µM)	0.06 (≈ 0.0587 µM)	0.06 (≈ 0.0587 µM)	0.13 (≈ 0.127 µM)	> 32	0.5 (≈ 0.489 µM)	4 (≈ 3.91 µM)	16 (≈ 15.7 µM)	32 (≈ 31.3 µM)	CCNC(=O)O[C@H]1[C@H](C)O[C@@H](O[C@H]2[C@H](N(C)C)[C@@H](O)[C@H](O[C@H]3[C@@H](CC=O)C[C@@H](C)[C@@H](O)CN(C)CCC[C@H](C/C=C/c4ccc(N)nc4)OC(=O)C[C@@H](OC(=O)CC)[C@@H]3OC)O[C@@H]2C)C[C@@]1(C)OC(=O)CC
0.5 (≈ 0.507 µM)	0.06 (≈ 0.0609 µM)	32 (≈ 32.5 µM)	32 (≈ 32.5 µM)	32 (≈ 32.5 µM)	8 (≈ 8.12 µM)	8 (≈ 8.12 µM)	0.13 (≈ 0.132 µM)	0.13 (≈ 0.132 µM)	0.25 (≈ 0.254 µM)	32 (≈ 32.5 µM)	1 (≈ 1.01 µM)	8 (≈ 8.12 µM)	16 (≈ 16.2 µM)	16 (≈ 16.2 µM)	CCC(=O)O[C@@H]1CC(=O)O[C@@H](C/C=C/c2ccc3ccccc3c2)CCCN(C)C[C@H](O)[C@H](C)C[C@H](CC=O)[C@H](O[C@@H]2O[C@H](C)[C@@H](O[C@H]3C[C@@](C)(O)[C@@H](OC(=O)CC)[C@H](C)O3)[C@H](N(C)C)[C@H]2O)[C@H]1OC
0.5 (≈ 0.496 µM)	0.015 (≈ 0.0149 µM)	32 (≈ 31.8 µM)	32 (≈ 31.8 µM)	32 (≈ 31.8 µM)	0.5 (≈ 0.496 µM)	0.5 (≈ 0.496 µM)	0.06 (≈ 0.0596 µM)	0.06 (≈ 0.0596 µM)	0.13 (≈ 0.129 µM)	> 64	0.5 (≈ 0.496 µM)	4 (≈ 3.97 µM)	16 (≈ 15.9 µM)	32 (≈ 31.8 µM)	CCNC(=O)O[C@H]1[C@H](C)O[C@@H](O[C@H]2[C@H](N(C)C)[C@@H](O)[C@H](O[C@H]3[C@@H](CC=O)C[C@@H](C)[C@@H](O)CN(C)CCC[C@H](C/C=C/c4cccnc4)OC(=O)C[C@@H](OC(=O)CC)[C@@H]3OC)O[C@@H]2C)C[C@@]1(C)OC(=O)CC
0.13 (≈ 0.157 µM)	0.03 (≈ 0.0362 µM)	> 128	> 128	> 128	1 (≈ 1.21 µM)	1 (≈ 1.21 µM)	0.06 (≈ 0.0725 µM)	0.06 (≈ 0.0725 µM)	0.06 (≈ 0.0725 µM)	> 128	0.13 (≈ 0.157 µM)	2 (≈ 2.42 µM)	8 (≈ 9.66 µM)	8 (≈ 9.66 µM)	CCCC(=O)O[C@H]1[C@H](C)O[C@@H](O[C@H]2[C@H](N(C)C)[C@@H](O)[C@H](O[C@H]3[C@@H](CC=O)C[C@@H](C)[C@@H](O)/C=C/C=C/C[C@@H](C)OC(=O)C[C@@H](O)[C@@H]3OC)O[C@@H]2C)C[C@@]1(C)OC(=O)CC [ROKITAMYCIN]
0.25 (≈ 0.25 µM)	< 0.008	2 (≈ 2 µM)	4 (≈ 4 µM)	4 (≈ 4 µM)	0.06 (≈ 0.0599 µM)	0.06 (≈ 0.0599 µM)	0.015 (≈ 0.015 µM)	0.015 (≈ 0.015 µM)	0.03 (≈ 0.03 µM)	32 (≈ 32 µM)	0.13 (≈ 0.13 µM)	2 (≈ 2 µM)	4 (≈ 4 µM)	4 (≈ 4 µM)	CCNC(=O)O[C@H]1[C@H](C)O[C@@H](O[C@H]2[C@H](N(C)C)[C@@H](O)[C@H](O[C@H]3[C@@H](CC=O)C[C@@H](C)[C@@H](O)CN(C)CCC[C@H](C/C=C/c4cncc5ccccc45)OC(=O)C[C@@H](O)[C@@H]3OC)O[C@@H]2C)C[C@@]1(C)OC(=O)CC
0.5 (≈ 0.467 µM)	0.03 (≈ 0.028 µM)	16 (≈ 14.9 µM)	32 (≈ 29.9 µM)	16 (≈ 14.9 µM)	0.25 (≈ 0.233 µM)	0.25 (≈ 0.233 µM)	0.06 (≈ 0.056 µM)	0.06 (≈ 0.056 µM)	0.13 (≈ 0.121 µM)	64 (≈ 59.7 µM)	0.25 (≈ 0.233 µM)	8 (≈ 7.47 µM)	32 (≈ 29.9 µM)	32 (≈ 29.9 µM)	CCCNC(=O)O[C@H]1[C@H](C)O[C@@H](O[C@H]2[C@H](N(C)C)[C@@H](O)[C@H](O[C@H]3[C@@H](CC=O)C[C@@H](C)[C@@H](O)CN(C)CCC[C@H](C/C=C/c4cnc5ccccc5c4)OC(=O)C[C@@H](OC(=O)CC)[C@@H]3OC)O[C@@H]2C)C[C@@]1(C)OC(=O)CC
0.5 (≈ 0.473 µM)	0.015 (≈ 0.0142 µM)	8 (≈ 7.57 µM)	8 (≈ 7.57 µM)	8 (≈ 7.57 µM)	0.13 (≈ 0.123 µM)	0.25 (≈ 0.236 µM)	0.03 (≈ 0.0284 µM)	0.03 (≈ 0.0284 µM)	0.06 (≈ 0.0567 µM)	128 (≈ 121 µM)	0.25 (≈ 0.236 µM)	8 (≈ 7.57 µM)	16 (≈ 15.1 µM)	16 (≈ 15.1 µM)	CCNC(=O)O[C@H]1[C@H](C)O[C@@H](O[C@H]2[C@H](N(C)C)[C@@H](O)[C@H](O[C@H]3[C@@H](CC=O)C[C@@H](C)[C@@H](O)CN(C)CCC[C@H](C/C=C/c4cncc5ccccc45)OC(=O)C[C@@H](OC(=O)CC)[C@@H]3OC)O[C@@H]2C)C[C@@]1(C)OC(=O)CC
